Measured values reported in patent US20140162966A1, “NANOPARTICLES FOR DELIVERY OF LIGANDS” (The U.S.A, as represented by the Secretary, Department of …, priority 2012, published 2014).

Legend:
[1] = tested on: subcutaneous 4T1-fluc tumors; assay: in vivo gene silencing in 4T1-fluc xenograft mouse model (in vivo BLI); design: species or system Balb/C mice; conditions: 72 hours after intratumor injection; siLuc 100 pmol and/or NPs 200 ug in 80 uL
Protocol: Four groups of Balb/C mice (n=5 per group) with subcutaneous 4T1-fluc tumors were treated with an intratumor injection of 80 uL of a buffer solution that contained siLuc/HADPA-Zn-NPs (100 pmol/200 ug), HADPA-Zn-NPs (200 ug), naked siLuc (100 pmol), or phosphate-buffered saline (PBS). The silencing of the fluc gene was measured by in vivo BLI. […] In contrast the control groups had increased levels of fluc expression ((30.0±4.1) %, (38.2±3.9)%, and (39.2±5.3)%, for HADPA-Zn-NPs, naked siRNA, and PBS, respectively, FIG. 8). The tumors from each group were harvested and weighed after BLI to determine whether the apparent gene silencing effect was a result of a reduction in the volume of the tumors as a consequence of the toxicity of the formulation. As shown by the […] testing, there was no significant difference in the neoplastic weights of the tumors between the various groups.

4T1-fluc cells = assay: cellular uptake of Cy3-labeled siRNA; format: cell-based
Protocol: CD44 expression was confirmed by flow cytometry. The red fluoresecence from Cy3-labeled siRNA was more intense in 4T1-fluc cells that were treated with siRNA/HADPA-Zn-NPs than in the cells that were treated with Lipofectamine 2000 (Lipo2K)/siRNA. […] Furthermore, the uptake of siRNA/HADPA-Zn-NPs into 4T1-fluc cells was 3.7±0.5-fold higher than the uptake into 293T cells.

| Substance | relative level of fluc expression [1] | fluorescence observed in treated cells (4T1-fluc cells) |
| --- | --- | --- |
| naked siRNA: siRNA that targets the firefly luciferase gene, SEQUENCE ID NO. 1 and 2, without carrier (chain 1 GCACUCUGAUUGACAAAUACGAUUU; chain 2 AAAUCGUAUUUGUCAAUCAGAGUGC; listed as RNA, chemistry not given here) | 38.2±3.9% | – |
| Zn-dipicolylamine [Zn-DPA] | – | no fluorescence was observed |
